This passage reports IC50 results from EP0286926A2, “Semi-synthetic rhodomycins, method for their preparation and their use as cytostatics” (BEHRINGWERKE Aktiengesellschaft, priority 1987, dated 1988).

Converted amounts (≈) assume the structure as drawn. Where two headings read alike, the source gives them in different places.

This experiment deals with L1210 Leukämiezellen. Nature of the experiment: Colony formation of L1210 leukemia cells in soft agar. The following applies: Mus musculus. It is filed as cell-based, Maus. The source says: Die zytostatische Wirksamkeit der erfindungsgemäßen Verbindungen wurde anhand von L1210 Leukämiezellen der Maus getestet. Hierzu wurde die Koloniebildung von L1210 Leukämiezellen in Agarplatten herangezogen. Diese Methode dient zum Nachweis des Einflusses der Testsubstanzen auf das Wachstumsverhalten der Zellen nach Inkubation von 1 Stunde oder über mehrere Generationen. Bei einer Zelzykluszeit von 10-12 Stunden werden dabei in der Testzeit von 7 Tagen etwa 14 aufeinanderfolgende Generationen beobachtet. Die erfindungsgemäßen zytostatisch wirksamen Substanzen bewirken in diesem Test eine Reduktion der zu beobachtenden Koloniezahl gegenüber einer unbehandelten Kontrollprobe.
Einzelheiten des Testverfahrens ergeben sich aus der nachfolgenden Verfahrensweise zur Ermittlung der Koloniebildung.
Verfahrensweise zur Ermittlung der Koloniebildung von L1210 Leukämiezellen in Soft-Agar
500 Leukämiezellen pro Platte wurden mit unterschiedlichen Konzentrationen der Testsubstanz 1 Stunde bei 37°C inkubiert. Anschließend wurden die Zellen zweimal mit McCoy5A-Medium gewaschen und schließlich in Petrischalen nach Zugabe von 0,3 % Agar ausgegossen. Kontrollen wurden lediglich mit frischem Medium inkubiert. Anstelle der einstündigen Inkubation wurden in manchen Fällen unterschiedliche Konzentrationen und Testsubstanzen der oberen Agarschicht zugemischt, um so eine kontinuierliche Exposition der Zellen über die gesamte Inkubationszeit zu erreichen. Nach Erstarren des Agars wurden die Platten im Brutschrank 7 Tage bei 37°C inkubiert (5 Vol.-% CO₂, 94 % relative Luftfeuchtigkeit). Anschließend wurde die Zahl der entstandenen Kolonien mit einem Durchmesser von mehr als 60 µm gezählt. Die Ergebnisse wurden angegeben als Koloniezahl in behandelten Agarplatten in Prozent der unbehandelten Kontrolle. Aus der so erhaltenen Dosiswirkungskruve wurde die IC₅₀ als Maß für die Wirksamkeit der Substanz ermittelt. Die Ergebnisse für die hier beschriebenen Verbindungen im Vergleich zu Adriamycin sind in der nachfolgenden Tabelle 1 zusammengefaßt.

Where [1] appears, read: L1210, 168 h, read-out: Dauerinkubation IC50.
[2] abbreviates: L1210, read-out: 1h-Inkubation IC50.
Setting [3] is: L1210, 168 h, continuous exposure: substance mixed into upper agar layer for the whole 7-day incubation at 37°C, colonies > 60 µm counted, percent of untreated control, read-out: Dauerinkubation IC50.
Where [4] appears, read: L1210, 1 h incubation with substance at 37°C, cells washed twice, then plated in 0,3 % agar for 7 days, colonies > 60 µm counted, read-out: 1h-Inkubation IC50.

For the compound `CC[C@@]1(O)C[C@H](O[C@H]2C[C@H](N(C)C)[C@@H](O)[C@H](C)O2)c2c(O)c3c(c(O)c2[C@H]1O[C@H]1C[C@H](N(C)C)[C@@H](O)[C@H](C)O1)C(=O)c1cccc(O)c1C3=O` [Beispiel 34], the IC50 (as a rule, the concentration that inhibits the measured activity by half) under setting [1] was determined as 0.026 µg/mL (≈ 0.0371 µM) and the IC50 under setting [2] was 0.09 µg/mL (≈ 0.128 µM).

`CC[C@@]1(O)C[C@H](O[C@H]2C[C@H](NC(=O)C(F)(F)F)[C@@H](OC(=O)c3ccc([N+](=O)[O-])cc3)[C@H](C)O2)c2c(O)c3c(c(O)c2[C@H]1O[C@H]1C[C@H](NC(=O)C(F)(F)F)[C@H](OC(=O)c2ccc([N+](=O)[O-])cc2)[C@H](C)O1)C(=O)c1cccc(O)c1C3=O` [Beispiel 35, 7-0-(4-0-Paranitrobenzoyl-3-N-trifluoracetyl-α-L-acosaminyl)-10-0-(4-0-paranitrobenzoyl-3-N-trifluoracetyl-α-L-daunosaminyl)-β-rhodomycinon]: the IC50 runs as follows: under setting [1], above 1 µg/mL; under setting [2], above 1 µg/mL.

Turning to `CC[C@@]1(O)C[C@H](O[C@H]2C[C@H](N)[C@@H](O)[C@H](C)O2)c2c(O)c3c(c(O)c2[C@H]1O[C@H]1C[C@H](N)[C@H](O)[C@H](C)O1)C(=O)c1cccc(O)c1C3=O` [Beispiel 37, 7-O-α-L-Acosaminyl-10-0-α-L-daunosaminyl-β-rhodomycinon], the IC50 reads like this: under setting [3], above 1 µg/mL; under setting [4], above 1 µg/mL.

Take `CC[C@@]1(O)C[C@H](O[C@H]2C[C@H](N(C)C)[C@H](OC(=O)c3ccccc3)[C@H](C)O2)c2c(O)c3c(c(O)c2[C@H]1O[C@H]1C[C@H](NC(=O)C(F)(F)F)[C@@H](OC(=O)c2ccc([N+](=O)[O-])cc2)[C@H](C)O1)C(=O)c1cccc(O)c1C3=O` [Beispiel 38, 7-0-(4-0-Benzoyl-α-L-rhodosaminyl)-10-0-(4-0-paranitrobenzoyl-3-N-trifluoracetyl-α-L-acosaminyl)-β-rhodomycinon]: the IC50 was above 1 µg/mL under setting [3] and above 1 µg/mL under setting [4].

As for `CC[C@@]1(O)C[C@H](O[C@H]2C[C@H](N(C)C)[C@H](O)[C@H](C)O2)c2c(O)c3c(c(O)c2[C@H]1O[C@H]1C[C@H](N)[C@@H](O)[C@H](C)O1)C(=O)c1cccc(O)c1C3=O` [Beispiel 40, 10-0-α-L-Acosaminyl-7-0-α-L-rhodosaminyl-β-rhodomycinon], the IC50 under setting [3] was determined as 0.85 µg/mL (≈ 1.26 µM) and the IC50 under setting [4] is above 1 µg/mL.

As to `CC[C@@]1(O)C[C@H](O[C@H]2C[C@H](N)[C@H](O)[C@H](C)O2)c2c(O)c3c(c(O)c2[C@H]1O[C@H]1C=C[C@@H](O)[C@H](C)O1)C(=O)c1cccc(O)c1C3=O` [Beispiel 42, 10-0-(2,3,6-Tridesoxy-α-L-erythro-hex-2-enopyranosyl)-7-0-α-L-daunosaminyl-β-rhodomycinon], the IC50 under setting [1] was 0.16 µg/mL (≈ 0.255 µM) and the IC50 under setting [2] was above 1 µg/mL.

As for `CC[C@@]1(O[C@H]2C[C@H](N)[C@@H](O)[C@H](C)O2)C[C@H](O[C@H]2C[C@H](N)[C@@H](O)[C@H](C)O2)c2c(O)c3c(c(O)c2[C@H]1O[C@H]1C[C@H](N)[C@@H](O)[C@H](C)O1)C(=O)c1cccc(O)c1C3=O` [Beispiel 44, 7,9,10-Tri-O-α-L-acosaminyl-β-rhodomycinon], the IC50 under setting [2] is above 1 µg/mL.

With `CC[C@@]1(O)C[C@H](O[C@H]2C[C@H](NC(=O)C(F)(F)F)[C@@H](O)[C@H](C)O2)c2c(O)c3c(c(O)c2[C@H]1O)C(=O)c1cccc(O)c1C3=O` [Beispiel 45, 7-O-(3-N-Trifluoracetyl-α-L-acosaminyl)-ß-rhodomycinon], the IC50 under setting [4] came to 0.29 µg/mL (≈ 0.474 µM).

As to `CC[C@@]1(O)C[C@H](O[C@H]2C[C@@H](N)[C@@H](O)[C@H](C)O2)c2c(O)c3c(c(O)c2[C@H]1O)C(=O)c1cccc(O)c1C3=O` [Beispiel 46, 7-O-α-L-Ristosaminyl-β-rhodomycinon], under setting [4], the IC50 was determined as 0.11 µg/mL (≈ 0.213 µM).

In the case of `CC[C@@]1(O)C[C@H](O[C@H]2C[C@H](N)[C@@H](OCc3ccccc3)[C@H](C)O2)c2c(O)c3c(c(O)c2[C@H]1O)C(=O)c1cccc(O)c1C3=O` [Beispiel 48, 7-O-(4-O-Benzyl-α-L-acosaminyl)-β-rhodomycinon], the IC50 under setting [4] is 0.095 µg/mL (≈ 0.157 µM).

For `CC[C@@]1(O)C[C@H](O[C@H]2C[C@H](NC(=O)C(F)(F)F)[C@@H](OCc3ccccc3)[C@H](C)O2)c2c(O)c3c(c(O)c2[C@H]1O)C(=O)c1cccc(O)c1C3=O` [Beispiel 49, 7-O-(4-O-Benzyl-3-N-trifluoracetyl-α-L-acosaminyl)-β-rhodomycinon], the IC50 under setting [2] was above 1 µg/mL.

For the compound `CC[C@@]1(O)C[C@H](O[C@@H]2O[C@@H](C)[C@H](O)[C@@H](O)[C@H]2I)c2c(O)c3c(c(O)c2[C@H]1O)C(=O)c1cccc(O)c1C3=O` [Beispiel 50, 7-O-(2,6-Didesoxy-2-iodo-α-L-mannopyranosyl)-β-rhodomycinon], the IC50 under setting [3] amounted to 0.1 µg/mL (≈ 0.156 µM).

For the compound `CC[C@@]1(O)C[C@H](O[C@H]2C[C@H](N)[C@@H](OCc3ccccc3)[C@H](C)O2)c2c(O)c3c(c(O)c2[C@H]1O[C@H]1C[C@H](N)[C@@H](OCc2ccccc2)[C@H](C)O1)C(=O)c1cccc(O)c1C3=O` [Beispiel 51, 7,10-Di-O-(4-O-Benzyl-α-L-acosaminyl)-β-rhodomycinon], the IC50 by setting is: under setting [3], 0.4 µg/mL (≈ 0.485 µM); under setting [4], 0.68 µg/mL (≈ 0.824 µM).

As to `CC[C@@]1(O)C[C@H](O[C@H]2C[C@H](NC(=O)C(F)(F)F)C[C@H](C)O2)c2c(O)c3c(c(O)c2[C@H]1O)C(=O)c1cccc(O)c1C3=O` [Beispiel 52, 7-O-(4-Desoxy-3-N-trifluoracetyl-α-L-daunosaminyl)-β-rhodomycinon], the IC50 under setting [4] was determined as 0.66 µg/mL (≈ 1.11 µM).

On to `CC[C@@]1(O)C[C@H](O[C@H]2C[C@H](N)C[C@H](C)O2)c2c(O)c3c(c(O)c2[C@H]1O)C(=O)c1cccc(O)c1C3=O` [Beispiel 53, 7-O-(4-Desoxy-α-L-daunosaminyl)-β-rhodomycinon], for which the 50% inhibitory concentration (IC50) was found to be 0.04 µg/mL (≈ 0.0801 µM) under setting [3] and 0.05 µg/mL (≈ 0.1 µM) under setting [4].
